In patent US20250221410A1, “SUBSTITUTED 2-C-AZINES AND SALTS THEREOF, AND USE THEREOF AS HERBICIDAL ACTIVE SUBSTANCES” (BAYER AKTIENGESELLSCHAFT, priority 2022, published 2025):

Tests used:
Assay type in all cases: in vivo
[1] = system: AMARE: Amaranthus retroflexus; test: Post-emergence herbicidal efficacy at 1280 g/ha, AMARE; details: rated visually after about 3 weeks vs untreated controls, 100% = plants have died, 0% = like control plants
Experimental: (§1) Seeds of mono- and dicotyledonous weed plants were placed in plastic pots in sandy loam soil (doubly sown with in each case one species of mono- or dicotyledonous weed plants per pot), covered with soil and cultivated in a greenhouse under controlled growth conditions. 2 to 3 weeks after sowing, the test plants were treated at the one-leaf stage. The compounds of the invention, formulated in the form of wettable powders (WP) or as emulsion concentrates (EC), were applied to the green parts of the plants as aqueous suspension or emulsion with addition of 0.5% additive at a water application rate equivalent to 600 litres per hectare. After the test plants had been kept in the greenhouse under optimum growth conditions for about 3 weeks, the activity of the preparations was rated visually in comparison to untreated controls. For example, 100% activity=the plants have died, 0% activity=like control plants. Tables A1 to A12 below show the effects of selected compounds of the general formula (I) according to Table 1 on various harmful plants and at an application rate corresponding to 1280 g/ha, which were obtained by the trial procedure specified above.

KCHSC: Kochia scoparia = test: Post-emergence herbicidal efficacy at 1280 g/ha, KCHSC; details: visual rating about 3 weeks after treatment vs untreated controls
Experimental: as §1

STEME: Stellaria media [2] = test: Post-emergence herbicidal efficacy at 1280 g/ha, STEME; details: visual rating about 3 weeks after treatment vs untreated controls
Experimental: as §1

VERPE: Veronica persica [3] = test: Post-emergence herbicidal efficacy at 1280 g/ha, VERPE; details: visual rating about 3 weeks after treatment vs untreated controls
Experimental: as §1

[4] = system: AMARE: Amaranthus retroflexus; test: Pre-emergence herbicide efficacy at 1280 g/ha, AMARE; details: visual scoring after about 3 weeks vs untreated controls
Source text: (§2) Seeds of mono- and dicotyledonous weed plants were placed in plastic pots in sandy loam soil (doubly sown with one species each of mono- or dicotyledonous weed plants per pot) and covered with soil. The compounds of the invention, formulated in the form of wettable powders (WP) or as emulsion concentrates (EC), were then applied to the surface of the covering soil as aqueous suspension or emulsion with addition of 0.5% additive at a water application rate of 600 litres per hectare (converted). After the treatment, the pots were placed in a greenhouse and kept under good growth conditions for the test plants. After about 3 weeks, the efficacy of the preparations was scored visually in comparison with untreated controls as percentages. For example, 100% activity=the plants have died, 0% activity=like control plants. Tables C1 to C12 below show the effects of selected compounds of the general formula (I) according to Table 1 on various harmful plants and at an application rate corresponding to 1280 g/ha, which were obtained by the trial procedure specified above.

STEME: Stellaria media [5] = test: Pre-emergence herbicide efficacy at 1280 g/ha, STEME; details: visual scoring vs untreated controls
Source text: as §2

[6] = system: ABUTH: Abutilon theophrasti; test: Pre-emergence herbicide efficacy at 1280 g/ha, ABUTH; details: visual scoring after about 3 weeks vs untreated controls
Source text: as §2

POAAN: Poa annua [7] = test: Pre-emergence herbicide efficacy at 1280 g/ha, POAAN; details: visual scoring after about 3 weeks vs untreated controls
Source text: as §2

[8] = system: ABUTH: Abutilon theophrasti; test: Post-emergence herbicidal efficacy at 1280 g/ha, ABUTH; details: rated visually after about 3 weeks vs untreated controls, 100% = plants have died, 0% = like control plants
Experimental: as §1

POAAN: Poa annua [9] = test: Post-emergence herbicidal efficacy at 1280 g/ha, POAAN; details: visual rating about 3 weeks after treatment vs untreated controls
Experimental: as §1

[10] = system: ECHCG: Echinochloa crus-galli; test: Pre-emergence herbicide efficacy at 1280 g/ha, ECHCG; details: visual scoring after about 3 weeks vs untreated controls
Source text: as §2

VERPE: Veronica persica [11] = test: Pre-emergence herbicide efficacy at 1280 g/ha, VERPE; details: visual scoring vs untreated controls
Source text: as §2

SMILES	Post-emergence efficacy at 1280 g/ha against AMARE in % [1]	Post-emergence efficacy against KCHSC (KCHSC: Kochia scoparia)	Post-emergence efficacy against STEME (STEME: Stellaria media [2])	Post-emergence efficacy against VERPE (VERPE: Veronica persica [3])	Pre-emergence efficacy against AMARE [4]	Pre-emergence efficacy against STEME in % (STEME: Stellaria media [5])	Pre-emergence efficacy against ABUTH [6]	Pre-emergence efficacy against POAAN (POAAN: Poa annua [7])	Post-emergence efficacy at 1280 g/ha against ABUTH in % [8]	Post-emergence efficacy against POAAN (POAAN: Poa annua [9])	Pre-emergence efficacy against ECHCG [10]	Pre-emergence efficacy against VERPE in % (VERPE: Veronica persica [11])
N#Cc1cccc(C(C#N)c2ncc(Cl)cn2)c1-n1cc(C(F)(F)F)cn1 (centres unmarked) [Example 1-71]	100%	100%	90%	90%	100%	90%						
N#CC(c1ccc(Cl)cn1)c1ccccc1Cc1ccc(F)cc1 (centres unmarked) [Example 1-82]	100%	90%		90%	100%	100%	100%	90%				
N#CC(c1ncc(Cl)cn1)c1ccccc1Cc1ccc(F)cc1 (centres unmarked) [Example 1-69]	90%	90%	90%	100%			100%					
N#CC(c1ccc(Cl)cn1)c1ccccc1-c1ccc(F)c(F)c1 (centres unmarked) [Example 1-80]	100%		90%	90%	100%	100%	90%	90%				
N#CC(c1ncc(Cl)cn1)c1ccccc1-c1ccc(F)c(F)c1 (centres unmarked) [Example 1-78]	90%							90%				
Fc1ccc(Sc2ccccc2Cc2ccc(Cl)cn2)cc1 [Example 1-105]	90%	90%	90%	90%	100%	90%		100%	90%	90%	90%	100%
COc1cccc(C(C#N)c2ncc(Cl)cn2)c1Oc1ccc(F)cc1 (racemic) [Example 1-32]	90%		90%	90%	90%							
N#CC(c1ncc(F)cn1)c1ccccc1-c1ccc(F)c(F)c1 (centres unmarked) [Example 1-79]								90%				
N#CC(c1ncc(Cl)cn1)c1cccc(Br)c1Oc1ccc(F)cc1 (racemic) [Example 1-36]				90%								
FC(F)(F)CCCc1ccccc1Cc1ccc(Cl)cn1 [Example 1-94]	90%			100%						90%		
N#CC(c1ncc(F)cn1)c1ccccc1CCCC(F)(F)F (centres unmarked) [Example 1-72]								90%				
Fc1cccc(OCCCC(F)(F)F)c1Cc1ncc(Cl)cn1 [Example 1-60]				100%				90%				90%
N#CC(c1ncc(Cl)cn1)c1ccccc1-n1cc(C(F)(F)F)cn1 (racemic) [Example 1-41]	90%			90%				90%	90%	90%		
